PubChem BioAssay AID256 (DTP/NCI, 2004)
Several values for one entry are separate records, joined by “and”; a condition that tells them apart may be missing. Equal values may be shown once. Toxic doses and inconclusive results are not listed.

Test system: CD2F1 mice, L1210 leukemia ip, survival T/C
Assay: NCI In Vivo Anticancer Drug Screen. Data for tumor model L1210 Leukemia (intraperitoneal) in CD2F1 (CDF1) mice
Details: higher = longer survival
How it was run: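 Antitumor effect is scored in animals hosting a serially transplanted tumor. Values compare compound-dosed animals against vehicle-only controls as a simple quotient.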

[1] = endpoint: mean survival time, dose: 50.0 mg/kg/injection, schedule: Q04DX003 (ip), vehicle: saline with Tween-80
[2] = endpoint: mean survival time, dose: 100.0 mg/kg/injection, schedule: Q01DX001 (ip), vehicle: saline with Tween-80
[3] = endpoint: mean survival time, dose: 100.0 mg/kg/injection, schedule: Q01DX009 (ip), vehicle: saline with Tween-80
[4] = endpoint: mean survival time, dose: 100.0 mg/kg/injection, schedule: Q04DX002 (ip), vehicle: saline with Tween-80
[5] = endpoint: mean survival time, dose: 100.0 mg/kg/injection, schedule: Q04DX003 (ip), vehicle: saline with Tween-80
[6] = endpoint: mean survival time, dose: 200.0 mg/kg/injection, schedule: Q01DX001 (ip), vehicle: saline with Tween-80
[7] = endpoint: mean survival time, dose: 200.0 mg/kg/injection, schedule: Q01DX009 (ip), vehicle: saline with Tween-80
[8] = endpoint: mean survival time, dose: 200.0 mg/kg/injection, schedule: Q04DX002 (ip), vehicle: saline with Tween-80
[9] = endpoint: mean survival time, dose: 200.0 mg/kg/injection, schedule: Q04DX003 (ip), vehicle: saline with Tween-80
[10] = endpoint: mean survival time, dose: 400.0 mg/kg/injection, schedule: Q04DX003 (ip), vehicle: saline with Tween-80

CCOC(=O)c1ccc(NC(=O)NC(Cc2ccccc2)c2ccccc2)cc1 (centres undefined)
T/C (endpoint: mean survival time, dose: 25.0 mg/kg/injection, schedule: Q04DX003 (ip), vehicle: saline with Tween-80): 111 % of control | T/C (endpoint: mean survival time, dose: 50.0 mg/kg/injection, schedule: Q01DX001 (ip), vehicle: saline with Tween-80): 96 % of control | T/C (endpoint: mean survival time, dose: 50.0 mg/kg/injection, schedule: Q01DX009 (ip), vehicle: saline with Tween-80): 87 % of control and 91 % of control | T/C [1]: 104 % of control | T/C [2]: 96 % of control | T/C [3]: 87 % of control | T/C [4]: 91 % of control | T/C [5]: 89 % of control and 106 % of control | T/C [6]: 94 % of control | T/C [7]: 87 % of control and 90 % of control | T/C [8]: 87 % of control and 88 % of control | T/C [9]: 101 % of control | T/C (endpoint: mean survival time, dose: 400.0 mg/kg/injection, schedule: Q01DX001 (ip), vehicle: saline with Tween-80): 94 % of control | T/C (endpoint: mean survival time, dose: 400.0 mg/kg/injection, schedule: Q04DX002 (ip), vehicle: saline with Tween-80): 86 % of control

CNC(=O)c1ccc2ccccc2c1
T/C (endpoint: mean survival time, dose: 50.0 mg/kg/injection, schedule: Q01DX001 (ip), vehicle: saline): 106 % of control | T/C (endpoint: mean survival time, dose: 100.0 mg/kg/injection, schedule: Q01DX001 (ip), vehicle: saline): 95 % of control | T/C (endpoint: mean survival time, dose: 200.0 mg/kg/injection, schedule: Q01DX001 (ip), vehicle: saline): 93 % of control | T/C (endpoint: mean survival time, dose: 400.0 mg/kg/injection, schedule: Q01DX001 (ip), vehicle: saline): 95 % of control

CC(=O)OCC1OC(OC2C(COC(C)=O)OC(Sc3ccccc3)C(OC(C)=O)C2OC(C)=O)C(OC(C)=O)C(OC(C)=O)C1OC(C)=O (centres undefined)
T/C (endpoint: mean survival time, dose: 0.78 mg/kg/injection, schedule: Q01DX009 (ip), vehicle: saline with Tween-80): 105 % of control | T/C (endpoint: mean survival time, dose: 1.56 mg/kg/injection, schedule: Q01DX009 (ip), vehicle: saline with Tween-80): 101 % of control | T/C (endpoint: mean survival time, dose: 3.13 mg/kg/injection, schedule: Q01DX009 (ip), vehicle: saline with Tween-80): 101 % of control | T/C [3]: 95 % of control | T/C [7]: 98 % of control | T/C (endpoint: mean survival time, dose: 400.0 mg/kg/injection, schedule: Q01DX009 (ip), vehicle: saline with Tween-80): 93 % of control

Cc1cccnc1-n1c(N)cc(=O)[nH]c1=S
T/C [5]: 97 % of control | T/C [9]: 101 % of control | T/C [10]: 100 % of control

CC[C@@]1(OC(=O)CN2CCCC2)C(=O)OCc2c1cc1n(c2=O)Cc2cc3ccccc3nc2-1
T/C (endpoint: median survival time, dose: 6.25 mg/kg/injection, schedule: Q04DX002 (ip), vehicle: water): 108 % of control | T/C (endpoint: median survival time, dose: 12.5 mg/kg/injection, schedule: Q04DX002 (ip), vehicle: water): 113 % of control | T/C (endpoint: median survival time, dose: 50.0 mg/kg/injection, schedule: Q04DX002 (ip), vehicle: water): 158 % of control and 166 % of control

CC(C#N)C(N)=O (centres undefined)
T/C (endpoint: mean survival time, dose: 12.5 mg/kg/injection, schedule: Q01DX009 (ip), vehicle: saline): 98 % of control | T/C (endpoint: mean survival time, dose: 25.0 mg/kg/injection, schedule: Q01DX009 (ip), vehicle: saline): 101 % of control | T/C (endpoint: mean survival time, dose: 50.0 mg/kg/injection, schedule: Q01DX009 (ip), vehicle: saline): 102 % of control

CS(=O)(=O)C(=Cc1ccccc1Cl)S(C)(=O)=O
T/C [5]: 103 % of control | T/C [9]: 95 % of control | T/C [10]: 101 % of control

CC/C=C\C/C=C\C/C=C\CCCCCCCC(=O)O
T/C [5]: 92 % of control | T/C [9]: 100 % of control | T/C [10]: 92 % of control

NC(=S)Nc1ccccc1[N+](=O)[O-]
T/C [1]: 103 % of control and 104 % of control | T/C [2]: 101 % of control | T/C [4]: 95 % of control | T/C [5]: 97 % of control and 101 % of control | T/C [6]: 102 % of control | T/C [8]: 93 % of control | T/C [9]: 97 % of control and 111 % of control

C/C=C(/c1ccccc1)c1ccc(N(C)C)cc1
T/C [5]: 98 % of control | T/C [9]: 91 % of control | T/C [10]: 91 % of control

Cc1ccc(C2CC(c3ccccc3)=NN2C)cc1 (centres undefined)
T/C (endpoint: mean survival time, dose: 75.0 mg/kg/injection, schedule: Q01DX001 (ip), vehicle: other): 96 % of control | T/C (endpoint: mean survival time, dose: 150.0 mg/kg/injection, schedule: Q01DX001 (ip), vehicle: other): 90 % of control | T/C (endpoint: mean survival time, dose: 300.0 mg/kg/injection, schedule: Q01DX001 (ip), vehicle: other): 93 % of control

CCC(O)C[As](=O)(O)c1ccc(Cl)cc1 (centres undefined)
T/C (endpoint: mean survival time, dose: 0.38 mg/kg/injection, schedule: Q01DX009 (ip), vehicle: water): 98 % of control | T/C (endpoint: mean survival time, dose: 0.78 mg/kg/injection, schedule: Q01DX009 (ip), vehicle: water): 98 % of control | T/C (endpoint: mean survival time, dose: 1.5 mg/kg/injection, schedule: Q01DX009 (ip), vehicle: water): 94 % of control

CCN(CC)CC(C)(C)C(=O)/C=C/c1ccc(/C=C/C(=O)C(C)(C)CN(CC)CC)cc1
T/C (endpoint: median survival time, dose: 3.75 mg/kg/injection, schedule: Q01DX005 (ip), vehicle: saline): 98 % of control | T/C (endpoint: median survival time, dose: 7.5 mg/kg/injection, schedule: Q01DX005 (ip), vehicle: saline): 107 % of control | T/C (endpoint: median survival time, dose: 15.0 mg/kg/injection, schedule: Q01DX005 (ip), vehicle: saline): 107 % of control | T/C (endpoint: median survival time, dose: 30.0 mg/kg/injection, schedule: Q01DX005 (ip), vehicle: saline): 116 % of control
